Source: patent US12697366B2, “Thermogenic compositions and methods” (Ohio State Innovation Foundation, priority 2016, dated 2026)

System: omental iAb preadipocytes
Test: FD-glucose uptake in human omental iAb preadipocytes
Type: cell-based
Settings: for glucose uptake in preadipocytes from lean insulin-sensitive patients: EREG vs insulin; for glucose uptake in preadipocytes from an insulin resistant patient: different doses of EREG, insulin 10 μg/ml
Description: FIGS. 16A to 16M show EREG improves glucose uptake in ob/ob mice and in mouse and human preadipocytes. FIG. 16A: GTT was performed on fasting Veh (open circles) and EREG-treated (closed circles) ob/ob (N=5/group, Study 4) mice (12 hrs) using a single 25% dextrose injection (0.004 mL/g body weight). Asterisks indicate significant differences between Veh- and EREG-treated groups. FIG. 16B: ITT was performed in the same mice groups. […]: Fluorescently-labelled (FD) glucose uptake was measured in mouse […] preadipocytes. FIG. 16C: Preadipocytes were treated with vehicle, insulin (ins), EREG and forskolin for 30 mins. […] Asterisks represent significant differences compared to vehicle (P<0.05). FIG. 16D: Dose dependent increase in FD-glucose uptake by 3T3-L1 preadipocytes stimulated with different EREG concentrations. Data are shown as a percent of Veh-treated control. FIGS. 16E to 16G: FD-glucose uptake was measured in omental iAb preadipocytes isolated from lean (FIG. 16E) and obese insulin-resistant (FIG. 16F, 16G) patients in the presence of insulin, EREG, and forskolin. […] Omental preadipocytes from obese insulin resistant […] (FIG. 16G) and […] (FIG. 16K) were also stimulated with and without EREG in presence and absence of EGFR and MAPK inhibitors for 30 mins. Data were calculated as a percent to non-stimulated control (Veh, 100%, dash line) and shown as a mean±SD. Asterisks represent significant differences compared to vehicle (P<0.05), Mann-Whitney U test. FIG. 16H: FD-glucose uptake was measured in mouse 3T3-L1 preadipocytes with or without EREG (50 ng/mL) and inhibitors of MAPK and PI3K (MAPK-I, 10 uM, and PI3K-I, 200 nM). Data (mean±SD) are shown as percent to control (Veh 100%). […] P<0.05 indicate significant differences between EREG-treated and PI3K-I/EREG treated groups. Asterisks indicate significant differences between vehicle control and treatments with inhibitors. FIG. 16I: Phosphorylated (p-Akt) and non-phosphorylated (total) Akt protein levels were measured in mouse 3T3-L1 preadipocytes stimulated with or without EREG (50 ng/ml), PI3K-I (200 nM) for 20 mins by western blot and quantified by ImageJ Software. […] Asterisks represent significant differences compared to vehicle (P<0.05). FIG. 16J: Plasma insulin levels in fasting Veh and EREG-treated ob/ob mice measured by ELISA. FIG. 16L: Phosphorylated Akt protein levels were measured by western blot in human preadipocytes from an obese person stimulated with or without EREG (50 ng/ml) and PI3K-I (200 nM) for 20 mins. […] Asterisks represent significant differences compared to vehicle (P<0.05). Mann-Whitney U test. FIG. 16M: Schematic depicting two different pathways involved in EREG-mediated induction of thermogenesis and glucose uptake. EREG acts via MAPK to induce leptin secretion and also stimulates hormone sensitive lipase (HSL). HSL hydrolyzes free fatty acids activating PPARα activation. EGF, EGFR inhibition, or MAPK inhibition streamlines EREG-dependent PI3K/Akt activation that increase glucose uptake.
Human stromal vascular fraction (SVF) was isolated from iAb (omental) fat of lean and obese men and women as described before and maintained in preadipocyte culture media (Lonza, Allendale, NJ). Differentiation was carried out for 9-10 days using preadipocyte culture media supplemented with insulin, dexamethasone, IBMX and indomethacin (Lonza, Allendale, NJ).
Glucose uptake assay was performed using glucose uptake cell-based assay kit (Cayman Chemical, Ann Arbor, MI). 3T3-L1 or human preadipocytes were cultured at a density of 5×10^4 per well into a 96-well plate (n=7) in high glucose media and grown overnight. Old cell culture medium was removed the next day and washed with PBS to remove residual glucose. Supplied 2-deoxy-2-[(7-nitro-2,1,3-benzoxadiazol-4-yl)amino]-D-glucose) (2-NBDG) was diluted to 150 μg/mL in DMEM medium without glucose, phenol red, L-glutamine, sodium pyruvate, and HEPES (Life technologies, Grand Island, New York). […]

[1] = insulin resistant patient, EREG with EGFR inhibitor, 30 mins

| Substance | glucose uptake in preadipocytes from lean insulin-sensitive patients | glucose uptake in preadipocytes from an insulin resistant patient | glucose uptake with inhibition of EGFR, compared to insulin response (100%) [1] [%] | glucose uptake with inhibition of EGFR, compared to non-treated preadipocytes (100%) [1] [%] |
| --- | --- | --- | --- | --- |
| insulin: insulin (bovine or human) | induced similar glucose uptake | not significant | – | – |
| EREG: Epiregulin, member of the epidermal growth factor family; recombinant mouse or human protein | induced similar glucose uptake | dose-dependent fashion | 212 | 268 |
